From patent US20220235006A1, “PYRIDINE DERIVATIVES AS TMEM16A MODULATORS FOR USE IN THE TREATMENT OF RESPIRATORY CONDITIONS” (TMEM16A LIMITED, priority 2019, published 2022)

Key:
Format in all cases: in vitro ADME
[1] = Caco-2 permeability assay; conditions: human, Caco-2, pH 7.4; for efflux ratio at 2 h, 10 μM: B-A/A-B; for Papp B→A at 2 h, 10 μM: basolateral to apical, pH7.4
Procedure: Caco2 permeability data provides a measure of a compound's permeability, and its potential for efflux by P-glycoprotein. […] This assay therefore provides an indication of which compounds are likely to be suitable for oral administration.
Caco-2 cells were purchased from ATCC and passaged to create a bank of cells. Cells were not used post 20 passages.
All test and reference compounds (metoprolol (passive permeability) and atenolol (pgp substrate)) were formulated in DMSO to 20 mM.
96-well plates were seeded with 9×10^3 Caco-2 cells/well in DMEM, 10% FBS, 1% NEAA, 1% pen/strep and maintained at 37° C., in a highly humidified atmosphere of 95% air and 5% CO2. Plates were ready for use on day 21.
10 mM DMSO stock test compounds were diluted to 1 mM in DMSO. Two replicates of each test compound were included in every assay. Final concentration of donor solution was 10 μM.
Assay transport buffer (25 mM HEPES/Hanks Balanced Salt Solution (HBSS), pH7.4) was prepared to wash the cells, create lucifer yellow (LY) stock solutions, receiver solutions and blanks for the transport assay. Final concentration of LY was 10 μM. Basolateral wells were treated with 250 μL of 10 μM dosing drug solution or 250 μL Transport Buffer. Apical wells were treated with 75 μL drug dosing solution or 75 μL Transport Buffer. The two plates were sandwiched together and cells were incubated with test compounds for 2 hours, shaking at 50 rpm, 37° C., 0% CO2.
A calibration curve was prepared for each compound; DMSO stock solutions were serially diluted from 300 μM to 100 μM, 30 μM, 10 μM, 3 μM, 1 μM and 0.3 μM in DMSO. 2 μL of each concentration was diluted into 198 μL of Sample Quench Solution (50% acetonitrile containing 500 nM tolbutamide). 50 μL of each calibration solution was then diluted in 50 μL Dosing Buffer (modified HBSS containing LY). Finally this plate was diluted 1:10 using a Janus robot in Robot Dilution Quench Solution (35% acetonitrile containing 250 nM tolbutamide).
Following a 2 h incubation, 50 μL of sample was removed from each well (apical and basolateral) and added to the T2 sample plate. Lucifer Yellow fluorescence was analysed using Spectrafluor Plus featuring the XFluor software to determine membrane integrity.
Following the fluorescence plate read, 50 μL Sample Quench Solution was then added to the T2 sample plate. Plates were diluted 1:10 and/or 1:100 into opaque 384-well plates using a Janus Robot. 1:100 dilution transfers were created sequentially directly from 1:10 dilutions. All dilutions were created using Robot Dilution Quench Solution (35% acetonitrile containing 250 nM tolbutamide). All samples were analysed by LC-MS/MS.

Microsomal stability = conditions: human microsomes 0.5 mg/mL; 1 μM; 1 mM NADPH
Procedure: Microsomes (human) were obtained from Bioreclamation.
All Test and reference control compounds (raloxifene, diclofenac, terfenadine, propranolol, dextromethorphan and metoprolol) were dissolved to create a 100 μM stock (final concentrations; 91.5% Acetonitrile: 8.5% DMSO). Final test compound concentration in incubation was 1 μM (<0.1% DMSO).
Solution 1: 17.4 g potassium phosphate dibasic anhydrous (K2HPO4, 0.1 M) dissolved in 1 L deionised water. Solution 2: 13.6 g potassium phosphate monobasic anhydrous (KH2PO4, 0.1 M) dissolved in 1 L deionised water. pH7.4 with 2 mM magnesium chloride. NADPH (10 mM) is prepared in deionised water.
Microsomes (all species) were removed from the −80° C. thawed at 37° C. Microsomes were diluted in assay buffer to achieve a final protein concentration of 0.5 mg/mL and 1 mM NADPH.
The following procedure was completed on a Perkin Elmer Janus robotic platform in 96 well format: The microsomal incubation plate was transferred to a heater shaker at 300 rpm and solution heated to 37° C. for 10 min pre-warm. A no co-factor control at 0 and 45 min and one replicates of each test compound was included in every assay. Microsomes were incubated at 37° C., on a shaker set at 300 rpm throughout the assay. […] Samples were diluted 1:1 with water using the Janus Robot and analysed by […]

[2] = system: Cryopreserved hepatocytes (human); test: Hepatic stability (cryopreserved hepatocytes); conditions: 1 μM
Procedure: Cryopreserved hepatocytes (human) were obtained from Bioreclamation.
Test compounds and reference controls (raloxifene, diclofenac, terenadine, propranolol, dextromethorphan and metoprolol) were dissolved in a 100 μM stock was prepared by diluting 5 μL of 4 mM (DMSO) in 195 μL of 50:50 DMSO:hepatocyte buffer. Final test compound concentration in incubation was 1 μM.
The hepatocyte buffer was prepared (Williams E media containing phenol red and Glutamax™, 15 mM HEPES, warmed to 37° C., pH7.4 with NaOH). Hepatocyte cells (all main species) were removed from liquid nitrogen, thawed in a waterbath, decanted into 50 mL of pre-warmed Cryopreserved Hepatocyte Recovery Media (LifeTechnologies) and centrifuged. Supernatant fraction was removed, cells were re-suspended in hepatocyte buffer and counted by trypan blue exclusion. Cell viability of >80% was required for all assays.
2 μL of 100 μM compound stock solution was added to relevant wells to initiate the incubation. A no cell control and two replicates of each test compound was included in every assay. Cells were incubated at 37° C., on a shaker set at 300 rpm. […] Samples were diluted 1:1 with water using the Janus Robot and analysed by LC-MS/MS.

[3] = Parallel artificial membrane permeability assay (PAMPA); conditions: 200 μM, 16 hours
Procedure: Parallel artificial membrane permeability assay (PAMPA) permeability data is a useful tool to predict passive permeability through biological lipid membranes. […] Passive permeability (>0.1 and <10×10^−6 cm/s) may still give good absorption properties.
All Test compounds were formulated in DMSO to 20 mM. Final concentration of all compounds in the assay was 200 μM with final DMSO concentration of 1%. The following reference controls were used: Antipyrine, Carbamazepine, Propranolol, Ranitidine and Ketoprofen.
The solutions were filtered and 150 μL transferred to a High Sensitivity 96 well UV plate. This was analysed by UV as the reference plate. A 200 μL sample of the 200 μM solution was transferred to the ‘donor’ plate of the PAMPA plon sandwich plate system. […] Donor and acceptor plates were sandwiched and kept in a humid environment at room temperature for 16 hours. On completion of the incubation the donor and acceptor plates were separated. 150 μL of solution was transferred from each of the donor and acceptor PAMPA sandwich plates into High Sensitivity 96 well UV plates for analysis by UV. Passive permeability (Pe 10^−6 cm/second) was determined for each compound tested. Control compounds were compared with historic and literature values to ensure assay functionality.

| efflux ratio at 2 h, 10 μM [1] | Papp B→A at 2 h, 10 μM [1] [×10⁻⁶ cm/s] | Structure (SMILES) | other results |
| --- | --- | --- | --- |
| 2.8 | 6 | Cc1cc(C(C)(C)CO)c(O)cc1CC(=O)Nc1ccnc(C(=O)NC2(C(F)(F)F)CC2)c1 [Example 14.1, 4-[[2-[5-Hydroxy-4-(2-hydroxy-1,1-dimethyl-ethyl)-2-methyl-phenyl]acetyl]amino]-N-[1-(trifluoromethyl)cyclopropyl]pyridine-2-carboxamide] |  |
| 1.8 | 5.7 | CC(C)(O)c1cc(F)c(CC(=O)Nc2ccnc(C(=O)NC3(C(F)(F)F)CC3)c2)cc1O [Example 2, 4-[[2-[2-Fluoro-5-hydroxy-4-(1-hydroxy-1-methyl-ethyl)phenyl]acetyl]amino]-N-[1-(trifluoromethyl)cyclopropyl]pyridine-2-carboxamide] |  |
| 2.8 | 4.9 | CC(C)(CO)c1cc(Cl)c(CC(=O)Nc2ccnc(C(=O)NC3(C(F)(F)F)CC3)c2)cc1O [Example 14, 4-[[2-[2-Chloro-5-hydroxy-4-(2-hydroxy-1,1-dimethyl-ethyl)phenyl]acetyl]amino]-N-[1-(trifluoromethyl)cyclopropyl]pyridine-2-carboxamide] |  |
| 1 |  | CCC(C)(O)c1cc(F)c(CC(=O)Nc2ccnc(C(=O)NC3(C(F)(F)F)CC3)c2)cc1O (centres unmarked) [Example 2.11, 4-[[2-[2-Fluoro-5-hydroxy-4-(1-hydroxy-1-methyl-propyl)phenyl]acetyl]amino]-N-[1-(trifluoromethyl)cyclopropyl]pyridine-2-carboxamide] |  |
| 20.7 | 7.8 | O=C(Cc1cc(O)c(C(CO)C(F)(F)F)cc1F)Nc1ccnc(C(=O)NC2(C(F)(F)F)CC2)c1 (centres unmarked) [Example 17, 4-[[2-[2-Fluoro-5-hydroxy-4-[2,2,2-trifluoro-1-(hydroxymethyl)ethyl]phenyl]acetyl]amino]N-[1-(trifluoromethyl)cyclopropyl]pyridine-2-carboxamide] |  |
| 2.3 | 5.5 | CC(C)(CCO)c1cc(F)c(CC(=O)Nc2ccnc(C(=O)NC3(C(F)(F)F)CC3)c2)cc1O [Example 11, 4-[[2-[2-Fluoro-5-hydroxy-4-(3-hydroxy-1,1-dimethyl-propyl)phenyl]acetyl]amino]-N-[1-(trifluoromethyl)cyclopropyl]pyridine-2-carboxamide] |  |
| 2.6 | 6.1 | O=C(Cc1cc(O)c(C2(CO)CCC2)cc1F)Nc1ccnc(C(=O)NC2(C(F)(F)F)CC2)c1 [Example 2.13, 4-[[2-[2-Fluoro-5-hydroxy-4-[1-(hydroxymethyl)cyclobutyl]phenyl]acetyl]amino]-N-[1-(trifluoromethyl)cyclopropyl]pyridine-2-carboxamide] |  |
|  |  | CC(C)(C#N)NC(=O)c1cc(NC(=O)Cc2ccc(C(C)(C)C)c(O)c2)ccn1 [93.4 of PCT/GB2019/050209, reference compound] | Human Microsome CIint (Microsomal stability): 32.8 µL/min/mg; Human Hepatocyte CIint [2]: 24.1 μL/min/million cells; PAMPA Pe (pH 5.0) ([3]; pH 5.0): 30.9 ×10^−4 cm/s; PAMPA Pe (pH 6.2) ([3]; pH 6.2): 38.4 ×10^−4 cm/s; PAMPA Pe (pH 7.4) ([3]; pH 7.4): 36.4 ×10^−4 cm/s |
| 0.9 | 2.5 | CC(C#N)NC(=O)c1cc(NC(=O)Cc2cc(O)c(C(C)(C)C)cc2F)ccn1 (centres unmarked) [Example 1.3] |  |
| 2.4 | 5.3 | CC(C)(CO)c1cc(F)c(CC(=O)Nc2ccnc(C(=O)NC3(C(F)(F)F)CC3)c2)cc1O [Example 2.6, 4-[[2-[2-Fluoro-5-hydroxy-4-(2-hydroxy-1,1-dimethyl-ethyl)phenyl]acetyl]amino]-N-[1-(trifluoromethyl)cyclopropyl]pyridine-2-carboxamide] |  |
| 19.8 | 7.2 | CC(C)(CO)c1cc(Cl)c(CC(=O)Nc2ccnc(C(=O)NC3(C(F)F)CC3)c2)cc1O [Example 15.3, 4-[[2-[2-Chloro-5-hydroxy-4-(2-hydroxy-1,1-dimethyl-ethyl)phenyl]acetyl]amino]-N-[1-(difluoromethyl)cyclopropyl]pyridine-2-carboxamide] |  |
|  |  | CC(C)(C)NC(=O)c1cc(NC(=O)Cc2cc(O)c(C(C)(C)C)cc2F)ccn1 [91 of PCT/GB2019/050209, reference compound] | Human Microsome CIint (Microsomal stability): 51.0 µL/min/mg; Human Hepatocyte CIint [2]: 15.6 μL/min/million cells |
